Data published in US8618082B2, “Lupeol anti-tumor agent and uses thereof” (Wisconsin Alumni Research Foundation, priority 2004, dated 2013).
Marks after values point to notes of the source that are not given here.

Assays:
[1] = tested on: CD-1 mouse skin; assay: TPA-induced cutaneous edema, skin punch weight; type: in vivo; conditions: for protection against TPA-induced skin edema: dose not stated, p<0.01
Procedure: Studies from the inventors' laboratory and by other have shown that TPA application to mouse skin results in cutaneous edema (Katiyar et at, 1996; Liang et at, 2002). In the present study, the inventors evaluated the protective effects of topical application of Lupeol in TPA-mediated cutaneous edema in CD-1 mouse. The inventors tested four doses 0.25, 0.5, 1 and 2 mg of Lupeol per animal in the inventors' preliminary studies. […] The CD-1 mice were topically treated with Lupeol (1 and 2 mg/mouse) and 30 min later were topically treated with TPA (3.2 nmole/mouse). […] At least four determinations were made at different dorsal skin sites per mouse in each group. The data represents the mean±SE of eight mice (*p<0.01 vs TPA).
The animals were shaved on the dorsal side of the skin, divided into four groups and treated topically on the shaved area with either 0.4 ml vehicle (acetone), or TPA (3.2 nmol/0.4 ml acetone/animal, v/v), or Lupeol (1 or 2 mg/0.2 ml acetone/animal, w/v) followed 30 min later with TPA (3.2 nmol/0.2 ml acetone/animal). Animals were sacrificed at different times point i.e. 6, 12, 24 and 48 h post TPA treatment. The epidermis was separated from the whole skin and homogenized in 0.1 M Tris-HCl buffer (pH 7.2) using a Polytron tissue homogenizer (Brinkmann Instruments, Westbury, N.Y., USA) at 100,000×g supernatant, and microsomal fractions were prepared as described earlier (Katiyar and Mukhtar, 1997). The sample of 6 h treatment group was used to assess the ODC activity as this time point has previously been shown for optimal induction of the enzyme (Katiyar er al., 1996).
To assess the inhibitory effect of pre-application of Lupeol on TPA-induced edema, 1 cm-diameter punches of skin from vehicle-, Lupeol-, TPA- or Lupeol- and TPA-treated mice were removed, made free of fat pads, and weighed immediately. After drying for 24 h at 50° C., the skin punches were reweighed, and the loss of water content was determined. The difference in the amount of water gain between the control (vehicle treated) and TPA treated represented the extent of edema induced by TPA, whereas that between the control vehicle and Lupeol plus TPA represented the inhibitory effect of Lupeol. For the hyperplasia study, skin was removed, fixed in 10% formalin, and embedded in paraffin. Vertical sections (5 μm) were cut, mounted on a glass slide, and stained with hematoxylin and eosin.

[2] = tested on: IKKα protein; assay: TPA-induced activation of IKKα (western blot); type: in vivo, mouse; conditions: highest dose of Lupeol, 12 h time point
Procedure: FIG. 6. Inhibitory effect of Lupeol on TPA-induced activation of IKKα, and phosphorylation and degradation of IκBα in CD-1 mice: At different times after treatment, the animals were sacrificed, epidermal cytosolic was prepared, and protein expression was determined. Equal loading was confirmed by stripping the immunoblot and reprobing it for β-actin. The immunoblots shown here are representative of three independent experiments with similar results. The values above each lane indicate relative density of the band normalized to β-actin.
The animals were shaved on the dorsal side of the skin, divided into four groups and treated topically on the shaved area with either 0.4 ml vehicle (acetone), or TPA (3.2 nmol/0.4 ml acetone/animal, v/v), or Lupeol (1 or 2 mg/0.2 ml acetone/animal, w/v) followed 30 min later with TPA (3.2 nmol/0.2 ml acetone/animal). […]
Epidermis from the whole skin was separated as described earlier (Katiyar et al., 1999) and was homogenized in ice-cold lysis buffer [50 mM Tris-HCl, 150 mM NaCl, 1 mM EGTA, 1 mM EDTA, 20 mM NaF, 100 mM Na3VO4, 0.5% NP-40, 1% Triton X-100, 1 mM PMSF (pH 7.4)] with freshly added protease inhibitor cocktail, Protease Inhibitor Cocktail Set III (Calbiochem, La Jolla, Calif., USA). […] The protein content in the lysates was measured by DC BioRad assay (BioRad Laboratories, Hercules, Calif.) as per the manufacturer's protocol. […]

[3] = tested on: human PSA; assay: Serum PSA in athymic nude mice implanted with CWR22Rv1 cells; type: in vivo, mouse; conditions: Lupeol 1 mg/animal i.p. three times a week, vs control mice
Excerpt: FIG. 19 depicts effect of Lupeol on human PSA levels in serum of athymic nude mice implanted with CWR22Rv1 cells. Data is represented as mean±SD. * indicates p<0.05.
CW22Rv1 cells once implanted in a xenograft mouse model releases Prostate specific antigen (PSA) in host system and grows rapidly than LNCaP cells. PSA is a well known diagnostic biomarker of prostate cancer.

[4] = tested on: AsPC-1 cells; assay: Viability of AsPC-1 cells, MTT assay; type: cell-based; conditions: Lupeol for 24-72 hours
Procedure: FIG. 20 depicts effect of Lupeol on viability of AsPC-1 cells. The cells were treated with specified concentrations of Lupeol for 24, 48 and 72 h, and cell viability was determined by MTT assay.

[5] = Lupeol alone (2 mg), topical, no TPA, mean±SE of eight mice
[6] = TPA + Lupeol (1 mg), Lupeol topical 30 min before TPA
[7] = TPA + Lupeol (2 mg), Lupeol topical 30 min before TPA

**Q.** Which “protection against TPA-induced skin edema” value ([1]; 24 h post-treatment) does the source give for C=C(C)[C@@H]1CC[C@]2(C)CC[C@]3(C)[C@H](CC[C@@H]4[C@@]5(C)CC[C@H](O)C(C)(C)[C@@H]5CC[C@]43C)[C@@H]12 [Lupeol, Lup-20(29)-en-3β-ol] here?
**A.** Its value is 48%.

**Q.** And the “protection against TPA-induced skin edema” value ([1]; 48 h post-treatment)?
**A.** Its value is 43%.

**Q.** What about the “Skin punch weight 24 hrs” value [1, 5] of the same compound?
**A.** Its value is 13.5 ± 1.5 mg/cm2.

**Q.** What about the “Skin punch weight 48 hrs” value [1, 5] of the same compound?
**A.** Its value is 15.5 ± 1.5 mg/cm2.

**Q.** What about the “% protection 24 hrs” value ([1]; TPA + Lupeol (1 mg)) of the same compound?
**A.** The value was 53%.

**Q.** And the “% protection 48 hrs” value ([1]; TPA + Lupeol (1 mg))?
**A.** The value was 52%.

**Q.** And the “Skin punch weight 24 hrs” value [1, 6]?
**A.** The value was 18.5 ± 1.0* mg/cm2.

**Q.** What about the “Skin punch weight 48 hrs” value [1, 6] of the same compound?
**A.** The value was 20.0 ± 1.0* mg/cm2.

**Q.** What about the “% protection 24 hrs” value ([1]; TPA + Lupeol (2 mg)) of the same compound?
**A.** Its value is 79%.

**Q.** What about the “% protection 48 hrs” value ([1]; TPA + Lupeol (2 mg)) of the same compound?
**A.** Its value is 85%.

**Q.** And the “Skin punch weight 24 hrs” value [1, 7]?
**A.** Its value is 16.0 ± 1.5* mg/cm2.

**Q.** And the “Skin punch weight 48 hrs” value [1, 7]?
**A.** The value was 16.5 ± 0.75* mg/cm2.

**Q.** And the “skin edema after Lupeol alone” value ([1]; topical Lupeol alone, 24 and 48 h post treatment)?
**A.** The value was “did not result in an increase in skin edema”.

**Q.** What about the “inhibition in TPA induced activation of IKKα protein” value [2] of the same compound?
**A.** Its value is about 95%.

**Q.** And the “serum PSA levels” value [3]?
**A.** Its value is “lower serum PSA levels”.

**Q.** What about the “cell death of ASPC-1 cells” value [4] of the same compound?
**A.** The value was “highly significant dose dependent cell death”.
